Reference: paper PMC10300102, “In vivo inhibition of nuclear ACE2 translocation protects against SARS-CoV-2 replication and lung damage through epigenetic imprinting” (Nature Communications, 2023)
Where “and” joins values, the source holds several entries; their conditions need not be identical. Equal entries are not always repeated. Where two headings read alike, the source gives them in different places. Where a SMILES comes first, the peptide text is derived from it. The star is where a group is joined. Myristoyl = CCCCCCCCCCCCCC(=O)*

Experiments:
ACE2 = target: T1, ACE2 (Homo sapiens, UniProt Q9BYF1); experiment: ACE2 activity assay in Caco2 cell lysates; format: biochemical; conditions: Caco2 cells treated 50 µM 24 h, fluorometric kit, n = 3 technical replicates
T1 construct: endogenous in cells; host or cells: Caco2
T1 sequence (Q9BYF1 18-805): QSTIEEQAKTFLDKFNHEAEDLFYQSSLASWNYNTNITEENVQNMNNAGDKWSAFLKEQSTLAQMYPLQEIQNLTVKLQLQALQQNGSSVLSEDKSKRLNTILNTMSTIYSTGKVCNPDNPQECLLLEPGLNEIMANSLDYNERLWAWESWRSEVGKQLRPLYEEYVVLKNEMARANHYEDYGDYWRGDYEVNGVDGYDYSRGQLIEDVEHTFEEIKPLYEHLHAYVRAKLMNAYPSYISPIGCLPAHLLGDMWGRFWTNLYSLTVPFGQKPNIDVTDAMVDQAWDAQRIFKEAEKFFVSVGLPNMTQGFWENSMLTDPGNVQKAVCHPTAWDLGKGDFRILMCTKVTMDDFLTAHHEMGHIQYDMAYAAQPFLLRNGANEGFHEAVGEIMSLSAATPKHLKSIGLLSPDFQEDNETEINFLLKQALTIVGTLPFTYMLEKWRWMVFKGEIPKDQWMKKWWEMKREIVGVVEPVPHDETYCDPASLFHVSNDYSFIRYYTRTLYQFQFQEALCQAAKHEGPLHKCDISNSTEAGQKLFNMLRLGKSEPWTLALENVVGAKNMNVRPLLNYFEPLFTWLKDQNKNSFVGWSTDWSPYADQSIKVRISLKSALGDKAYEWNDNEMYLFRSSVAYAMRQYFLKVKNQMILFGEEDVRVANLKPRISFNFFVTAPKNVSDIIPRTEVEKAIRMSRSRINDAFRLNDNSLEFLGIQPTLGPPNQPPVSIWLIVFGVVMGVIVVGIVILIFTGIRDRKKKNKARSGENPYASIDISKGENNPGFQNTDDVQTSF
Procedure: Caco2 cells were seeded in T75 flasks using complete DMEM medium as above. Cells were treated with NACEi2 (50 µM) for 24 h. 1 × 10^6 cells were harvested, and the ACE2 activity assay was performed using the ACE2 Activity Assay Kit (Fluorometric) (ab273297, Abcam, Cambridge, UK) following the manufacturer’s instructions. ACE2 positive control with diluted ACE2 inhibitor was used as a negative control, and cell lysate with lysis buffer only was used as the background control. Fluorescence (Ex/Em = 320/420 nm) was measured in kinetic mode for 30 min (5 min intervals) at room temperature with a Biotek Synergy H4 Multimode Scanner.

SARS-CoV-2 spike protein = test system: SARS-CoV-2 spike protein; parameters: species or system golden Syrian hamsters; conditions: hamster, in vivo
[1] = test system: SARS-CoV-2-induced lung pathology; parameters: species or system golden Syrian hamsters; conditions: hamster, in vivo
[2] = test system: perforin-positive and CD3+ cells; format: in vivo, golden Syrian hamsters; conditions: hamster lungs 2 dpi; for %CD3+ / %Perforin+: individual animals, n=5
[3] = test system: lung bronchiole and alveoli cell types; experiment: Cell type deconvolution analysis of NanoString DSP data; format: in vivo, golden Syrian hamsters; parameters: cell type proportion: macrophages: unit not given here; conditions: for cell type proportion: B / cell type proportion: NK / cell type proportion: T / cell type proportion: Treg / cell type proportion: endothelial / cell type proportion: fibroblasts / cell type proportion: mDCs / cell type proportion: macrophages / cell type proportion: mast / cell type proportion: monocytes / cell type proportion: neutrophils / cell type proportion: pDCs / cell type proportion: plasma: individual ROIs of H023 and H017
Procedure: Cell type deconvolution analysis was performed using R package SpatialDecon[68]. The Q3 normalized count matrix from NanoString DSP data and the safeTME[68] immune cell profile matrix were used as the query and reference input, respectively, to reveal cell type abundance within each of the selected ROIs. Cell type proportion for each selected ROI was visualized using a stack bar plot, where ROIs were grouped by tissue region (bronchioles vs. alveoli) and experimental condition (control and NACE2i-treated samples). In addition, given the non-normal distribution of the data, the Wilcoxon test was performed to compare each cell type proportion in controls against NACE2i-treated ROIs. The distribution of each cell type and p-value for the comparisons were visualized in box plots.

[4] = hamsters, escalating daily i.p. doses up to 100 mg/kg
[5] = test system: SARS-CoV-2 (QLD02) in Caco2 cells; conditions: cited from earlier work

CCCCCCCCCCCCCC(=O)N[C@H](C(=O)NCC(=O)N[C@H](C(=O)N[C@@H](CCCNC(=N)N)C(=O)N[C@@H](CC(=O)O)C(=O)N[C@@H](CCCNC(=N)N)C(=O)N[C@@H](CCCCN)C(=O)N[C@@H](CCCCN)C(=O)N[C@@H](CCCCN)C(=O)N[C@@H](CC(N)=O)C(=O)N[C@@H](CCCCN)C(=O)N[C@@H](C)C(=O)N[C@@H](CCCNC(=N)N)C(=O)N[C@@H](CO)C(=O)O)[C@@H](C)CC)[C@@H](C)O [NACE2i] (Myristoyl-TGIRDRKKKNKARS-OH)
ACE2 enzymatic activity (ACE2): no impact | SARS-CoV-2 spike protein signal intensity (SARS-CoV-2 spike protein): significantly reduced | population of SARS-CoV-2 spike protein-positive cells in bronchiolar epithelium (SARS-CoV-2 spike protein): significantly reduced | lung histopathological changes [1]: minimal alveolar, bronchiolar, or vascular changes | mean cumulative histopathological scores versus vehicle [1]: substantially lower | Bronchitis/bronchiolitis ([1]; ip): 0 | Interstital inflammation ([1]; ip): 0 | Vasculitis ([1]; ip): 0 | %CD3+ ([2]; i.p. NACE2i): 7.228% and 6.247% and 7.351% and 8.086% | %Perforin+ ([2]; i.p. NACE2i): 14.1151% and 9.254% and 20.5795% and 12.5121% | %CD3+ ([2]; i.v. NACE2i): 6.775% and 4.046% and 7.435% and 7.728% and 7.891% | %Perforin+ ([2]; i.v. NACE2i): 8.914% and 7.676% and 12.1345% and 7.891% and 7.955% | number of CD3+ cells ([2]; i.v. or i.p.): significantly increased | proportion of perforin-positive cells ([2]; i.v. or i.p.): significantly increased | cell type proportion: B ([3]; Alveoli_NACE2i): 23.6847 and 32.4439 and 22.6247 and 29.4388 and 26.4374 and 25.048 and 27.5277 and 28.9903 and 27.2409 and 34.2892 and 28.9637 and 28.8675 | cell type proportion: NK ([3]; Alveoli_NACE2i): 17.1939 and 16.5847 and 20.9543 and 18.0108 and 22.2943 and 18.4617 and 20.087 and 18.6524 and 17.3616 and 14.6317 and 17.3619 and 17.6717 | cell type proportion: T ([3]; Alveoli_NACE2i): 16.6413 and 6.4009 and 15.4997 and 7.4175 and 8.025 and 5.045 and 6.1551 and 0 (2×) and 10.2833 and 5.973 and 3.9643 | cell type proportion: Treg ([3]; Alveoli_NACE2i): 0 (6×) and 1.553 and 8.1921 and 4.323 and 1 and 11.0807 and 5.06 | cell type proportion: endothelial ([3]; Alveoli_NACE2i): 28.1806 and 29.4553 and 29.583 and 29.8626 and 25.5168 and 33.6067 and 33.1024 and 36.1595 and 33.2493 and 33.1189 and 27.1461 and 36.2683 | cell type proportion: fibroblasts ([3]; Alveoli_NACE2i): 1.176 and 0.714 and 0.4633 and 0.8459 and 0.7981 and 0.4825 and 0.7109 and 0.76 and 1.098 and 0.6031 and 0.7444 and 1.019 | cell type proportion: mDCs ([3]; Alveoli_NACE2i): 0 (10×) and 0.2521 and 0.6557 | cell type proportion: macrophages ([3]; Alveoli_NACE2i): 5.388 and 3.326 and 1.773 and 2.095 and 8.024 and 0.205 and 7.196 and 5.143 and 2.92 and 3.5372 and 2.755 and 4.269 | cell type proportion: mast ([3]; Alveoli_NACE2i): 3.016 and 2.78 and 3.108 and 4.739 and 2.682 and 3.555 and 2.55 and 3.279 and 2.68 and 3.582 and 4.658 and 2.8819 | cell type proportion: monocytes ([3]; Alveoli_NACE2i): 0.03537 and 0 (11×) | cell type proportion: neutrophils ([3]; Alveoli_NACE2i): 1.753 and 2.9035 and 1.994 and 3.2852 and 1.817 and 0.9729 and 2.361 and 0.2488 and 2.135 and 0.8335 and 0.7054 and 0.8644 | cell type proportion: pDCs ([3]; Alveoli_NACE2i): 0 | cell type proportion: plasma ([3]; Alveoli_NACE2i): 2.932 and 5.391 and 3.999 and 2.753 and 4.405 and 4.431 and 0.3105 and 2.193 and 2.376 and 2.431 and 2.621 and 3.0985 | cell type proportion: B ([3]; Bronchiole_NACE2i): 0 (4×) and 36.4151 and 8.716 and 15.9886 and 32.8168 and 11.1034 and 35.5652 and 45.4372 and 7.351 | cell type proportion: NK ([3]; Bronchiole_NACE2i): 23.9964 and 22.2229 and 20.8895 and 32.9425 and 10.1656 and 15.473 and 6.835 and 10.348 and 25.7402 and 11.1678 and 15.6048 and 32.6588 | cell type proportion: T ([3]; Bronchiole_NACE2i): 18.2436 and 18.4266 and 38.1438 and 0 (3×) and 5.53 and 45.4382 and 35.2758 and 13.8104 and 20.1994 and 29.1879 | cell type proportion: Treg ([3]; Bronchiole_NACE2i): 0 (5×) and 21.836 and 33.8509 and 20.1505 and 4.85 and 5.947 and 12.5635 and 16.1845 | cell type proportion: endothelial ([3]; Bronchiole_NACE2i): 16.4013 and 5.225 and 10.2999 and 2.966 and 17.2008 and 10.2265 and 6.188 and 5.584 and 8.968 and 11.6958 and 12.5764 and 14.8185 | cell type proportion: fibroblasts ([3]; Bronchiole_NACE2i): 2.825 and 0.8593 and 2.185 and 1.129 and 1.957 and 1.105 and 1.635 and 0.3982 and 0.8306 and 1.6 and 2.113 and 2.3944 | cell type proportion: mDCs ([3]; Bronchiole_NACE2i): 0 (10×) and 0.9775 and 1.142 | cell type proportion: macrophages ([3]; Bronchiole_NACE2i): 5.529 and 0 and 0.1628 and 4.651 and 2.104 and 14.1819 and 29.1261 and 22.5397 and 28.7793 and 1.462 and 3.082 and 5.048 | cell type proportion: mast ([3]; Bronchiole_NACE2i): 7.052 and 8.207 and 2.9723 and 2.068 and 4.233 and 1.198 and 2.171 and 3.272 and 0 and 1.897 and 1.1071 and 8.014 | cell type proportion: monocytes ([3]; Bronchiole_NACE2i): 0 (11×) and 0.2701 | cell type proportion: neutrophils ([3]; Bronchiole_NACE2i): 9.945 and 11.5606 and 12.9563 and 15.2877 and 1.922 and 0 and 1.136 and 5.344 and 0.585 and 0.3256 and 4.512 and 3.83 | cell type proportion: pDCs ([3]; Bronchiole_NACE2i): 0.5957 and 4.06 and 4.2347 and 0 (6×) and 1.875 and 1.074 and 1.693 | cell type proportion: plasma ([3]; Bronchiole_NACE2i): 15.4112 and 7.333 and 8.156 and 7.105 and 0.3226 and 1.788 and 1.644 and 1.037 and 2.72 and 1.151 and 2.026 and 6.866 | NK cells in bronchiolar regions ([3]; infected hamsters 2 dpi): increased | macrophages in bronchiolar regions ([3]; infected hamsters 2 dpi): significantly decreased | body temperature [4]: minimal changes in body temperature | body weight [4]: without a decrease in body weight | discomfort [4]: no observable discomfort | SARS-CoV-2 replication in Caco2 cells [5]: significantly inhibit
